The results in this text go back to ChEMBL document CHEMBL5653615 (J Biol Chem, 2013).

Each structure is given as a SMILES string.

As usually defined, the inhibition is the relative decrease from the control value, in per cent.

Test [1] concerns the target Casein kinase II subunit alpha' (Homo sapiens) (UniProt P19784). The experiment in a line: Inhibition of human CK2a2 at 1.82 nM by HotSpot assay relative to control.
For test [2], the target named is Calcium/calmodulin-dependent protein kinase type II subunit beta (Homo sapiens) (UniProt Q13554). Description: Inhibition of human CAMK2b at 1.82 nM by HotSpot assay relative to control.
Test [3] deals with T1, Serine/threonine-protein kinase Sgk2 (Homo sapiens) (UniProt Q9HBY8).
T1 sequence (whole entry): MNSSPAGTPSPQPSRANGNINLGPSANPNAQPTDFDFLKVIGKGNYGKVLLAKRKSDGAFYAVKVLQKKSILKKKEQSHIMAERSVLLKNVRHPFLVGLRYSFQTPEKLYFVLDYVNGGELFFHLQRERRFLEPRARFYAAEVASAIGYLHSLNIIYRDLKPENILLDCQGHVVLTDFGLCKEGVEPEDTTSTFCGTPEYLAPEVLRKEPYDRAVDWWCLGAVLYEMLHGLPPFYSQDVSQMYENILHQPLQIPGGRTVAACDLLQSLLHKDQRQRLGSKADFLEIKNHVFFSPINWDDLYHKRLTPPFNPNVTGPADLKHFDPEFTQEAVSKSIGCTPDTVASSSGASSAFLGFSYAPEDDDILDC
Description: Inhibition of human SGK2 at 18.6 nM by HotSpot assay relative to control.

The target in test [4] is T2, Interleukin-1 receptor-associated kinase 4 (Homo sapiens) (UniProt Q9NWZ3).
T2 sequence (whole entry): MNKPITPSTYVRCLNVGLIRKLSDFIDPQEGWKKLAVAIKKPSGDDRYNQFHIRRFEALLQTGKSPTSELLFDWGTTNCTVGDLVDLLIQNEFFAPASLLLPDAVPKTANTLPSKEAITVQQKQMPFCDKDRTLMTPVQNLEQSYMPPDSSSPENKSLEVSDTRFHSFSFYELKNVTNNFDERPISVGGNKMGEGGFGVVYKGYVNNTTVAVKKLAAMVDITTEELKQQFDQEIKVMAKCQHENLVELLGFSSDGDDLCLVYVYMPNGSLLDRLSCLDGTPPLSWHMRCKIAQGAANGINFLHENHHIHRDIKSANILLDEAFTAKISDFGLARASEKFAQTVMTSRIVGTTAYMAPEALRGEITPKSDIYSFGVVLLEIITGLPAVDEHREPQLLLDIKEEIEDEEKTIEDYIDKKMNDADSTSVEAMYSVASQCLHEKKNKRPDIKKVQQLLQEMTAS
Description: Inhibition of human IRAK4 at 18.6 nM by HotSpot assay relative to control.

For test [5], the target named is T3, Dual serine/threonine and tyrosine protein kinase (Homo sapiens) (UniProt Q6XUX3).
T3 sequence (whole entry): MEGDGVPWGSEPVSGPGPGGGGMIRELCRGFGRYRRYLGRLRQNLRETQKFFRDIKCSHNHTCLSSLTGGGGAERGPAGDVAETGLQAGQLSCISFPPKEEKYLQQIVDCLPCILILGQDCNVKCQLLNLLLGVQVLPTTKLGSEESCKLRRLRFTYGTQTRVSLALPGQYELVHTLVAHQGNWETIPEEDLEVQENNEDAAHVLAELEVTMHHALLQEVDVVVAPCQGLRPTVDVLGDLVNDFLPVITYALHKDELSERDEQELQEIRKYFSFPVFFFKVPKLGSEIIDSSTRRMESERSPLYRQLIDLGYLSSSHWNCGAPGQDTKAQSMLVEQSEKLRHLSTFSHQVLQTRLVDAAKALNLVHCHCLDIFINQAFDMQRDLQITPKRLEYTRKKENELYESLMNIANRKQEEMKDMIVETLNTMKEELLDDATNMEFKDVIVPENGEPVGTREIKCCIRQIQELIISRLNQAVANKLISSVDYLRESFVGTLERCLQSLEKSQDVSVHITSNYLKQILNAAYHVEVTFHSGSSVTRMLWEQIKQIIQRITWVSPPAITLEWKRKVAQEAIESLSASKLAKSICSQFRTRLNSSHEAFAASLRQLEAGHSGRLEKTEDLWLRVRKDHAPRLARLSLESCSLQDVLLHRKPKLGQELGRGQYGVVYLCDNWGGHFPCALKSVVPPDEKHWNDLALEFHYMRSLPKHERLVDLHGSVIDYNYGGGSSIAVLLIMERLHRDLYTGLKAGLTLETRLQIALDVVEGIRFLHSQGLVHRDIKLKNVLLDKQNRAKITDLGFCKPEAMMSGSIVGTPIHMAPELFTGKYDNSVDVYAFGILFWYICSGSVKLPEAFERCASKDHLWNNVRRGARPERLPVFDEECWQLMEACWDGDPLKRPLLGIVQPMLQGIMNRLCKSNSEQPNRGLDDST
The experiment in a line: Inhibition of human RIPK5 at 18.6 nM by HotSpot assay relative to control.

The target of test [6] is Serine/threonine-protein kinase 24 (Homo sapiens) (UniProt Q9Y6E0). Description: Inhibition of human STK24 at 18.6 nM by HotSpot assay relative to control.
The target of test [7] is Homeodomain-interacting protein kinase 3 (Homo sapiens) (UniProt Q9H422). Description: Inhibition of human HIPK3 at 18.6 nM by HotSpot assay relative to control.
Test [8] concerns the target Mitogen-activated protein kinase kinase kinase 11 (Homo sapiens) (UniProt Q16584). Description: Inhibition of human MAP3K11 at 18.6 nM by HotSpot assay relative to control.
For test [9], the target named is T4, Serine/threonine-protein kinase BRSK2 (Homo sapiens) (UniProt Q8IWQ3).
T4 sequence (whole entry): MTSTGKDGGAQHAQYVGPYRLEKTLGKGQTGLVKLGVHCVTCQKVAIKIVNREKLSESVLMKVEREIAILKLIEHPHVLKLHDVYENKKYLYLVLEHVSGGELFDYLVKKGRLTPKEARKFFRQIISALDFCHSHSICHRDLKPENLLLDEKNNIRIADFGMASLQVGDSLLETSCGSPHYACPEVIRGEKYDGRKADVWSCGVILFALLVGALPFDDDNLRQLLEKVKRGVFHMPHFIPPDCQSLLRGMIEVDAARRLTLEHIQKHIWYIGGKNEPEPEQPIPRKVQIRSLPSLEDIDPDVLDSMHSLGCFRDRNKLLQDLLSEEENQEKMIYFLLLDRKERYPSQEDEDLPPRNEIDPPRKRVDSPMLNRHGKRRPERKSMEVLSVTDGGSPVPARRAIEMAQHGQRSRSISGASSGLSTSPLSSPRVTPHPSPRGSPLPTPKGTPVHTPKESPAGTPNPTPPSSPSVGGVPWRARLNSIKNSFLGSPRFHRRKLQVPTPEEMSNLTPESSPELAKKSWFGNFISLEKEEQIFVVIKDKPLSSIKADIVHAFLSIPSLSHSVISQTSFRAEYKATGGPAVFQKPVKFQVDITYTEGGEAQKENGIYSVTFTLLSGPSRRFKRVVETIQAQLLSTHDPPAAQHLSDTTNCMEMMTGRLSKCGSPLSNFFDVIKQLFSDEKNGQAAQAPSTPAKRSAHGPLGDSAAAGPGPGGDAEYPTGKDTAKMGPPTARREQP
Description: Inhibition of human BRSK2 at 18.6 nM by HotSpot assay relative to control.

Calcium/calmodulin-dependent protein kinase type II subunit beta (Homo sapiens), sequence (Q13554 whole entry): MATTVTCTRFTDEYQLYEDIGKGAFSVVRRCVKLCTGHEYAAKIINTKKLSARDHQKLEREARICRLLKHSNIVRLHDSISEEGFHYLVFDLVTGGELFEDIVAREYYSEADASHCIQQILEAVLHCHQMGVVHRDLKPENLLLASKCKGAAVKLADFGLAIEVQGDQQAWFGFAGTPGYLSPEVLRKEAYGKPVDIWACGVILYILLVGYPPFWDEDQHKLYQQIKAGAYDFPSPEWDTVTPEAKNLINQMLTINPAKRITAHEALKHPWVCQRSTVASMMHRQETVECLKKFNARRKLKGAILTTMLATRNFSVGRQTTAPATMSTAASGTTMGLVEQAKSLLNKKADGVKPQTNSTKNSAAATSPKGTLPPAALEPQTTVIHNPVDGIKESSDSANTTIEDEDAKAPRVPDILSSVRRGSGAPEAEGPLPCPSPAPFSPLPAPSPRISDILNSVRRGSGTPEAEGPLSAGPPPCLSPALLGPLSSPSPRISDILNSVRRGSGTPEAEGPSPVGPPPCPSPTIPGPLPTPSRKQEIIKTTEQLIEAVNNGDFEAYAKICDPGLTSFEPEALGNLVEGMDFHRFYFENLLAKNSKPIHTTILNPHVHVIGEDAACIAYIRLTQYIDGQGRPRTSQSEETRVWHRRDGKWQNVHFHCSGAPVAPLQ
Mitogen-activated protein kinase kinase kinase 11 (Homo sapiens), sequence (Q16584 whole entry, looked up): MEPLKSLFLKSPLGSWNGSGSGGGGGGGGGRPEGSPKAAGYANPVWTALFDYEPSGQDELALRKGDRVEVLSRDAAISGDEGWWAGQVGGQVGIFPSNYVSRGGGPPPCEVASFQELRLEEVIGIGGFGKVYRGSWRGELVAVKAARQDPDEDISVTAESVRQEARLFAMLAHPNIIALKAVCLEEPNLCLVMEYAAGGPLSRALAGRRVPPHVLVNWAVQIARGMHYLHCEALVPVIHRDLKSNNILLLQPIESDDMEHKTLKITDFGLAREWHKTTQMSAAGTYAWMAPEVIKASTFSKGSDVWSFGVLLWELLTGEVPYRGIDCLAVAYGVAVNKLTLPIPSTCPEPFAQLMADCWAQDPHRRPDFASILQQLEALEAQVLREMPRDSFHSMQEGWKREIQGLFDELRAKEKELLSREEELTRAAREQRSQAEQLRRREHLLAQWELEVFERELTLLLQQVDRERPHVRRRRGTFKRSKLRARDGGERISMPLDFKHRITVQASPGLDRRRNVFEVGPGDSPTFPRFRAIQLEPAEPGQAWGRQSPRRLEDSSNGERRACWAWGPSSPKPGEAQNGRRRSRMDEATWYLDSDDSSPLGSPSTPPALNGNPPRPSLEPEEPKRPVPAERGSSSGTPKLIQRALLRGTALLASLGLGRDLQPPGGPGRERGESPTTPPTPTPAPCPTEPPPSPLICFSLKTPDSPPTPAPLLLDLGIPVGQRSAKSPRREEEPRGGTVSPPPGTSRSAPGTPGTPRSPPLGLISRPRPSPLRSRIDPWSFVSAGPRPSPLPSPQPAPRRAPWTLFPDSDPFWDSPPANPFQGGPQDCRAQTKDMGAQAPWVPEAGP
Casein kinase II subunit alpha' (Homo sapiens), sequence (P19784 whole entry, looked up): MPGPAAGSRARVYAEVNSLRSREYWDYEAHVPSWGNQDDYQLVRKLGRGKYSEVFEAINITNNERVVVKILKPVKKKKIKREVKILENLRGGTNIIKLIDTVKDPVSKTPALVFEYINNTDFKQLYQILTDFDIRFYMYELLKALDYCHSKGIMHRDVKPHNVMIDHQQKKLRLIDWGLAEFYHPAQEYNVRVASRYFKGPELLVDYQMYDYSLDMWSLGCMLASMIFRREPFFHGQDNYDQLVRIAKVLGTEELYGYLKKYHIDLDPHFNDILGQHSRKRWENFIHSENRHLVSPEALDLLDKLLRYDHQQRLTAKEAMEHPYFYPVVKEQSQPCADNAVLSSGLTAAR
Serine/threonine-protein kinase 24 (Homo sapiens), sequence (Q9Y6E0 whole entry, looked up): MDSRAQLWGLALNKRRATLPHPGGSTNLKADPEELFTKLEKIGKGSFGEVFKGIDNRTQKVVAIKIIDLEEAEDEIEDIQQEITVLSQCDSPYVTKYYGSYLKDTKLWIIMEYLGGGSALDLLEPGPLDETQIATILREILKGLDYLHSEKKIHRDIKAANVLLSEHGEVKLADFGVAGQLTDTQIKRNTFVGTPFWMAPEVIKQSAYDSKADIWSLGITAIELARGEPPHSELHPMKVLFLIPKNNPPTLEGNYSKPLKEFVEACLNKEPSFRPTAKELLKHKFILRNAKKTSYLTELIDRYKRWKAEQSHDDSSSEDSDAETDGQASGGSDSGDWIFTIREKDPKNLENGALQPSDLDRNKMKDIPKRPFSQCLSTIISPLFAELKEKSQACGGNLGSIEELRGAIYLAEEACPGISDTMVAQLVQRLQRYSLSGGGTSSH
Homeodomain-interacting protein kinase 3 (Homo sapiens), sequence (Q9H422 whole entry, looked up): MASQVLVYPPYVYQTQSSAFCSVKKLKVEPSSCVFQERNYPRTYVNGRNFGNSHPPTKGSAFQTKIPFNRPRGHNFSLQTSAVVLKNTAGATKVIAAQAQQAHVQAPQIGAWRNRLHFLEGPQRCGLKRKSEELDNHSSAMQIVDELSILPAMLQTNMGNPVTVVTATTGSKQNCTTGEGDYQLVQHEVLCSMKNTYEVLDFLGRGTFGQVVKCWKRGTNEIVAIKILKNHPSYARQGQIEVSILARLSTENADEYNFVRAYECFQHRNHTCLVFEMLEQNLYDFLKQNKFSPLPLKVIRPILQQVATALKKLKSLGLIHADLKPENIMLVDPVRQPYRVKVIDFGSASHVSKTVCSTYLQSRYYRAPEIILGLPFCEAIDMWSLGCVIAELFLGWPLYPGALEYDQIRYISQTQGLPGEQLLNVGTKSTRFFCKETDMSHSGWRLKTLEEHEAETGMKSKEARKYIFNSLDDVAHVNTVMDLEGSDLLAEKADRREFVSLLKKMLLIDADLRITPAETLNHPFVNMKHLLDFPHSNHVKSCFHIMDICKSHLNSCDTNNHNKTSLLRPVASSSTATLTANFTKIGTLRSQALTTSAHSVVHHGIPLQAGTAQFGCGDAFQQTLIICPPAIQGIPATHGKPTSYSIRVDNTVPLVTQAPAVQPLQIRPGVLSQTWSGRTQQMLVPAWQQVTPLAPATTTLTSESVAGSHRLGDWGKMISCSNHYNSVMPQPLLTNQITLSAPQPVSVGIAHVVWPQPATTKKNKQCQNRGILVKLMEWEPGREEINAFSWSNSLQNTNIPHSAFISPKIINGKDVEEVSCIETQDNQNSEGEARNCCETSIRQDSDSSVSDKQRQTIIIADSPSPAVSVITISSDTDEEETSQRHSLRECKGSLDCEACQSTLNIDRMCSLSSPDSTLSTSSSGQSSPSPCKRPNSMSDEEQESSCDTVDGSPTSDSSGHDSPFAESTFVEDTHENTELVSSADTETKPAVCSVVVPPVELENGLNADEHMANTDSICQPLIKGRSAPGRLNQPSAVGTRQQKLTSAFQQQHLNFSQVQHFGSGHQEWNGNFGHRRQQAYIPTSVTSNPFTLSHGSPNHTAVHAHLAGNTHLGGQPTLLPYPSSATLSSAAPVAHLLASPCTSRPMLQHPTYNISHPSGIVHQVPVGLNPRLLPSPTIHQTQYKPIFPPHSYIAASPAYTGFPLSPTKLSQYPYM

In the case of `C[C@@]1(C(=O)Nc2ccc(F)nc2)CCCN1c1nc(Nc2cc(C3CC3)n[nH]2)c2cccn2n1`, the inhibition in [1] worked out at 11.7%; in test [2], 4.93%.
In the case of `C[C@]1(O)C[C@@H](c2nc(-c3ccc4ccc(-c5ccccc5)nc4c3)c3c(N)nccn32)C1`, the inhibition is -3.95% in [3]; -2.53% in test [4]; -0.63% in test [5]; 3.3% in test [6]; -5.3% in test [7]; 0.31% in [8]. Moreover, in test [9], the inhibition was -4.68%.
